Drawing on patent publication US20250318998A1, “REMINERALIZING RESTORATIVE COMPOSITIONS AND METHODS THEREOF” (ADA FORSYTH INSTITUTE, INC., priority 2023, published 2025), this text covers water solubility for one molecule.

Residues, ends and D or L forms follow the SMILES beside them.

This data set in a line: Water solubility (statement). It counts as physicochemical.

As to `N[C@@H](CC(=O)O)C(=O)N[C@@H](CO)C(=O)N[C@@H](CO)C(=O)N[C@@H](CC(=O)O)C(=O)N[C@@H](CO)C(=O)N[C@@H](CO)C(=O)N[C@@H](CC(=O)O)C(=O)N[C@@H](CO)C(=O)N[C@@H](CO)C(=O)N[C@@H](CC(=O)O)C(=O)N[C@@H](CO)C(=O)N[C@@H](CO)C(=O)N[C@@H](CC(=O)O)C(=O)N[C@@H](CO)C(=O)N[C@@H](CO)C(=O)N[C@@H](CC(=O)O)C(=O)N[C@@H](CO)C(=O)N[C@@H](CO)C(=O)N[C@@H](CC(=O)O)C(=O)N[C@@H](CO)C(=O)N[C@@H](CO)C(=O)N[C@@H](CC(=O)O)C(=O)N[C@@H](CO)C(=O)N[C@@H](CO)C(=O)O` [8DSS] (H-DSSDSSDSSDSSDSSDSSDSSDSS-OH; N-terminus and C-terminus assumed), the water solubility result is on record as “water soluble”.
